Values of other authors, collected in publication PMC12802961 (Journal of Antimicrobial Chemotherapy, 2025).
Where two headings read alike, the source gives them in different places.

Conditions: cited from earlier work

Structure (SMILES)	Ct (threshold concentration) (ceftazidime/avibactam) [mg/L]	Ct (threshold concentration) (ceftolozane/tazobactam) [mg/L]
NC(=O)[C@@H]1CC[C@@H]2CN1C(=O)N2OS(=O)(=O)O [avibactam]	1	–
C[C@]1(Cn2ccnn2)[C@H](C(=O)O)N2C(=O)C[C@H]2S1(=O)=O [tazobactam]	–	0.5
